Laboratory results: US9193731B2, “Antimicrobial compounds and methods of making and using the same” (Melinta Therapeutics, Inc., priority 2009, dated 2015)

Test system: Escherichia coli strain ATCC25922
Experiment: standard microdilution assay to determine minimum inhibitory concentrations (MICs)
Type: cell-based
Settings: for E. coli ATCC25922 MIC: Escherichia coli strain ATCC25922, microdilution; for MIC: Escherichia coli, ATCC25922, Escherichia coli strain ATCC25922, microdilution, read-out: E. coli ATCC25922 MIC
Method in brief: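 Broth microdilution MIC against E. coli ATCC25922, following CLSI protocols, typically in a 100 microliter final volume. Results reported as +/− relative to a 16 micrograms/ml cutoff.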

SMILES	E. coli ATCC25922 MIC	MIC [µg/mL]
N=C(N)NCCCNCc1ccc(-n2cc3cc(-c4cc(CCCCN)cc(SC(F)(F)F)c4)[nH]c3nc2=O)cc1 [Compound 2046a]	+ (a “+” indicates that the compound has an MIC value of 16 micrograms/ml or less)	–
N=C(N)NCCCNCc1ccc(-n2cc3cc(-c4cc(OC(F)(F)F)cc(SCCCN)c4)[nH]c3nc2=O)cc1 [Compound 2047a]	+ (a “+” indicates that the compound has an MIC value of 16 micrograms/ml or less)	–
N=C(N)NCCCNC(=O)c1ccc(-n2cc3cc(-c4cc(CCCCN)cc(OC(F)(F)F)c4)[nH]c3nc2=O)cc1 [Compound 2048a]	+ (a “+” indicates that the compound has an MIC value of 16 micrograms/ml or less)	–
CSCc1cc(OCC(F)CN)cc(-c2cc3cn(-c4ccc(CNCCCNC(=N)N)cc4)c(=O)nc3[nH]2)c1 (stereo not drawn) [Compound 2049a]	+ (a “+” indicates that the compound has an MIC value of 16 micrograms/ml or less)	–
N=C(N)NCCCNCc1ccc(-n2cc3cc(-c4cc(CO)cc(OCC(F)CN)c4)[nH]c3nc2=O)cc1 (stereo not drawn) [Compound 2050a]	+ (a “+” indicates that the compound has an MIC value of 16 micrograms/ml or less)	–
N=C(N)NCCCNCc1ccc(-n2cc3cc(-c4cc(CN)cc(OCC(F)CN)c4)[nH]c3nc2=O)cc1 (stereo not drawn) [Compound 2051a]	+ (a “+” indicates that the compound has an MIC value of 16 micrograms/ml or less)	–
N=C(N)NCCCNCc1ccc(-n2cc3cc(-c4cc(OC(F)(F)F)cc(S(=O)(=O)CCCN)c4)[nH]c3nc2=O)cc1 [Compound 2052a]	+ (a “+” indicates that the compound has an MIC value of 16 micrograms/ml or less)	–
N=C(N)NCCCNCc1ccc(-n2cc3cc(-c4cc(CCO)cc(CCCCN)c4)[nH]c3nc2=O)cc1 [Compound 2053a]	+ (a “+” indicates that the compound has an MIC value of 16 micrograms/ml or less)	–
N=C(N)NCCCNCc1ccc(-n2cc3cc(-c4cc(CCCCN)cc([S+]([O-])C(F)(F)F)c4)[nH]c3nc2=O)cc1 (stereo not drawn) [Compound 2054a]	+ (a “+” indicates that the compound has an MIC value of 16 micrograms/ml or less)	–
N=C(N)NCCCNCc1ccc(-n2cc3cc(-c4cc(CCCCN)cc(S(=O)(=O)C(F)(F)F)c4)[nH]c3nc2=O)cc1 [Compound 2055a]	+ (a “+” indicates that the compound has an MIC value of 16 micrograms/ml or less)	–
NCCCc1cccc(-c2cc3cn(-c4ccc(C(N)=O)cc4)c(=O)nc3[nH]2)c1 [Compound 2056a]	–	> 16
NCCCc1cccc(-c2cc3cn(-c4ccc(CN)cc4)c(=O)nc3[nH]2)c1 [Compound 2057a]	–	> 16
N=C(N)NCCCNCc1ccc(-n2cc3cc(-c4cc(CCCN)cc(OC(F)(F)F)c4)[nH]c3nc2=O)cc1 [Compound 2058a]	+ (a “+” indicates that the compound has an MIC value of 16 micrograms/ml or less)	–
N=C(N)NCCCNCc1ccc(-n2cc3cc(-c4cc(OC(F)(F)F)cc(S(=O)(=O)NCCN)c4)[nH]c3nc2=O)cc1 [Compound 2059a]	+ (a “+” indicates that the compound has an MIC value of 16 micrograms/ml or less)	–
N=C(N)NCCCNCc1ccc(-n2cc3cc(-c4cncc(CCCCN)c4)[nH]c3nc2=O)cc1 [Compound 2060a]	+ (a “+” indicates that the compound has an MIC value of 16 micrograms/ml or less)	–
N=C(N)NCCCNCc1ccc(-n2cc3cc(-c4cc(OC(F)(F)F)cc(C(O)CCN)c4)[nH]c3nc2=O)cc1 (stereo not drawn) [Compound 2061a]	+ (a “+” indicates that the compound has an MIC value of 16 micrograms/ml or less)	–
N=C(N)NCCCNCc1ccc(-n2cc3cc(-c4cc(CCN)cc(CCCCN)c4)[nH]c3nc2=O)cc1 [Compound 2062a]	+ (a “+” indicates that the compound has an MIC value of 16 micrograms/ml or less)	–
CC(=O)NCc1ccc(-n2cc3cc(-c4cccc(CCCN)c4)[nH]c3nc2=O)cc1 [Compound 2063a]	− (a “−” indicates that the compound has an MIC value greater than 16 micrograms/ml)	–
N=C(N)NCCCNCc1ccc(-n2cc3cc(-c4cc(CN)cc(CCCCN)c4)[nH]c3nc2=O)cc1 [Compound 2064a]	+ (a “+” indicates that the compound has an MIC value of 16 micrograms/ml or less)	–
N=C(N)NCCCNCc1ccc(-n2cc3cc(-c4cc(CO)cc(CCCCN)c4)[nH]c3nc2=O)cc1 [Compound 2065a]	+ (a “+” indicates that the compound has an MIC value of 16 micrograms/ml or less)	–
CSc1cc(CCCCN)cc(-c2cc3cn(-c4ccc(CNCCCNC(=N)N)cc4)c(=O)nc3[nH]2)c1 [Compound 2066a]	+ (a “+” indicates that the compound has an MIC value of 16 micrograms/ml or less)	–
N=C(N)NCCCNCc1ccc(-n2cc3cc(-c4cc(C(F)(F)F)cc(S(=O)(=O)NCCN)c4)[nH]c3nc2=O)cc1 [Compound 2067a]	+ (a “+” indicates that the compound has an MIC value of 16 micrograms/ml or less)	–
N=C(N)NCCCNCc1ccc(-n2cc3cc(-c4cc(Cl)cc(CCCCN)c4)[nH]c3nc2=O)cc1 [Compound 2068a]	+ (a “+” indicates that the compound has an MIC value of 16 micrograms/ml or less)	–

SMILES	E. coli ATCC25922 MIC	MIC [µg/mL]
N=C(N)NCCCNCc1ccc(-n2cc3cc(-c4cc(CCCCN)cc(C(N)=O)c4)[nH]c3nc2=O)cc1 [Compound 2069a]	+ (a “+” indicates that the compound has an MIC value of 16 micrograms/ml or less)	–
N=C(N)NCCCNCc1ccc(-n2cc3cc(-c4cc(CNCCN)cc(OC(F)(F)F)c4)[nH]c3nc2=O)cc1 [Compound 2070a]	+ (a “+” indicates that the compound has an MIC value of 16 micrograms/ml or less)	–
N=C(N)NCCCNCc1ccc(-n2cc3cc(-c4ccc(F)c(CCCCN)c4)[nH]c3nc2=O)cc1 [Compound 2071a]	+ (a “+” indicates that the compound has an MIC value of 16 micrograms/ml or less)	–
N=C(N)NCCCNCc1ccc(-n2cc3cc(-c4ccc(OC(F)(F)F)c(CCCCN)c4)[nH]c3nc2=O)cc1 [Compound 2072a]	+ (a “+” indicates that the compound has an MIC value of 16 micrograms/ml or less)	–
N=C(N)NCCCNCc1ccc(-n2cc3cc(-c4cc(CCCCN)ccc4Cl)[nH]c3nc2=O)cc1 [Compound 2073a]	+ (a “+” indicates that the compound has an MIC value of 16 micrograms/ml or less)	–
N=C(N)NCCCNCc1ccc(-n2cc3cc(-c4cc(CCCCN)cc(OC(F)F)c4)[nH]c3nc2=O)cc1 [Compound 2074a]	+ (a “+” indicates that the compound has an MIC value of 16 micrograms/ml or less)	–
N=C(N)NCCCNCc1ccc(-n2cc3cc(-c4cccc(C(CCCN)C(F)(F)F)c4)[nH]c3nc2=O)cc1 (stereo not drawn) [Compound 2075a]	+ (a “+” indicates that the compound has an MIC value of 16 micrograms/ml or less)	–
N=C(N)NCCCNCc1ccc(-n2cc3cc(-c4cc(OC(F)(F)F)cc([S+]([O-])CCCN)c4)[nH]c3nc2=O)cc1 (stereo not drawn) [Compound 2076a]	+ (a “+” indicates that the compound has an MIC value of 16 micrograms/ml or less)	–
N=C(N)NCCC(NCc1ccc(-n2cc3cc(-c4cc(CCCCN)cc(OC(F)(F)F)c4)[nH]c3nc2=O)cc1)C(F)(F)F (stereo not drawn) [Compound 2078a]	+ (a “+” indicates that the compound has an MIC value of 16 micrograms/ml or less)	–
N=C(N)NCCCNCc1ccc(-n2cc3cc(-c4cc(Br)cc(CCCCN)c4)[nH]c3nc2=O)cc1 [Compound 2079a]	+ (a “+” indicates that the compound has an MIC value of 16 micrograms/ml or less)	–
NCCCc1cccc(-c2cc3cn(-c4ccc(C(N)C(F)(F)F)cc4)c(=O)nc3[nH]2)c1 (stereo not drawn) [Compound 2080a]	–	> 16
N=C(N)NCCCNC(c1ccc(-n2cc3cc(-c4cc(CCCCN)cc(OC(F)(F)F)c4)[nH]c3nc2=O)cc1)C(F)(F)F (stereo not drawn) [Compound 2081a]	+ (a “+” indicates that the compound has an MIC value of 16 micrograms/ml or less)	–
N=C(N)NCCCCc1cc(OC(F)(F)F)cc(-c2cc3cn(-c4ccc(C(NCCCNC(=N)N)C(F)(F)F)cc4)c(=O)nc3[nH]2)c1 (stereo not drawn) [Compound 2082a]	+ (a “+” indicates that the compound has an MIC value of 16 micrograms/ml or less)	–
CSCc1cc(CCCCN)cc(-c2cc3cn(-c4ccc(CNCCCNC(=N)N)cc4)c(=O)nc3[nH]2)c1 [Compound 2083a]	+ (a “+” indicates that the compound has an MIC value of 16 micrograms/ml or less)	–
N#Cc1cc(CCCCN)cc(-c2cc3cn(-c4ccc(CNCCCNC(=N)N)cc4)c(=O)nc3[nH]2)c1 [Compound 2084a]	+ (a “+” indicates that the compound has an MIC value of 16 micrograms/ml or less)	–
N=C(N)NCCCNCc1ccc(-n2cc3cc(-c4cc(F)cc(CCCCN)c4)[nH]c3nc2=O)cc1 [Compound 2085a]	+ (a “+” indicates that the compound has an MIC value of 16 micrograms/ml or less)	–
N=C(N)NCCCNCc1ccc(-n2cc3cc(-c4cc(CCCCN)cc(C(F)F)c4)[nH]c3nc2=O)cc1 [Compound 2087a]	+ (a “+” indicates that the compound has an MIC value of 16 micrograms/ml or less)	–
CS(=O)(=O)Cc1cc(CCCCN)cc(-c2cc3cn(-c4ccc(CNCCCNC(=N)N)cc4)c(=O)nc3[nH]2)c1 [Compound 2088a]	+ (a “+” indicates that the compound has an MIC value of 16 micrograms/ml or less)	–
N=C(N)NCCCNCc1ccc(-n2cc3cc(-c4ccc(Cl)c(CCCCN)c4)[nH]c3nc2=O)cc1 [Compound 2089a]	+ (a “+” indicates that the compound has an MIC value of 16 micrograms/ml or less)	–
CS(=O)(=O)NCc1cc(CCCCN)cc(-c2cc3cn(-c4ccc(CNCCCNC(=N)N)cc4)c(=O)nc3[nH]2)c1 [Compound 2090a]	+ (a “+” indicates that the compound has an MIC value of 16 micrograms/ml or less)	–
N=C(N)NCCCNCc1ccc(-n2cc3cc(-c4cc(CCCCN)ccc4F)[nH]c3nc2=O)cc1 [Compound 2091a]	+ (a “+” indicates that the compound has an MIC value of 16 micrograms/ml or less)	–
N=C(N)NCCCNCc1ccc(-n2cc3cc(-c4cc(CCCCN)cc(S(N)(=O)=O)c4)[nH]c3nc2=O)cc1 [Compound 2092a]	+ (a “+” indicates that the compound has an MIC value of 16 micrograms/ml or less)	–
